In ChEMBL document CHEMBL1148480, “Structure-activity studies of orexin a and orexin B at the human orexin 1 and orexin 2 receptors led to orexin 2 receptor selective and orexin 1 receptor preferring ligands” (J Med Chem, 2004) one finds EC50 data, which are given here for 14 compounds.

Non-standard residues stand in square brackets, D forms with d. Residues, ends and D or L forms follow the SMILES beside them. pGlu = O=C1CC[C@@H](C(=O)O)N1; Ahx = NCCCCCC(=O)O

The experiment deals with T1, Orexin/Hypocretin receptor type 1 (Homo sapiens, UniProt O43613).
T1 sequence (O43613 whole entry): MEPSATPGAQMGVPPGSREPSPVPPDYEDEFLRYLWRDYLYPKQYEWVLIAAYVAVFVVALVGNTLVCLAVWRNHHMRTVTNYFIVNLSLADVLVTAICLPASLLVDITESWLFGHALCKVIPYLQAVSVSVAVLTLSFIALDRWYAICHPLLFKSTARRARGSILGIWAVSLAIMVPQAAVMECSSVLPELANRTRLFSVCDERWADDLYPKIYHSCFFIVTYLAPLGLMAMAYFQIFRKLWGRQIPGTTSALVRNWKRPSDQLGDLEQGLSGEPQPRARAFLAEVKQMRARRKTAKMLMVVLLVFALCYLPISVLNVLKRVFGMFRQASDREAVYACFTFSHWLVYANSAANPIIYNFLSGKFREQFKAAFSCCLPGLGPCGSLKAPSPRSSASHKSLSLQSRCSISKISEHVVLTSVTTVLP
Put plainly: Effective agonist concentration to human orexin receptor type 1 determined using the Xlfit program. It is filed as functional.

For the compound `CC[C@H](C)[C@H](NC(=O)CNC(=O)[C@H](C)NC(=O)[C@H](C)NC(=O)[C@H](Cc1c[nH]cn1)NC(=O)[C@H](CC(N)=O)NC(=O)CN)C(=O)N[C@@H](CC(C)C)C(=O)N[C@H](C(=O)N[C@@H](CC(C)C)C(N)=O)[C@@H](C)O` (H-GNHAAGILTL-NH2), the EC50 (in general, the concentration at which the effect is half-maximal) was over 1000 µM.

`CC[C@H](C)[C@H](NC(=O)CNC(=O)[C@H](C)NC(=O)[C@H](C)NC(=O)[C@H](Cc1c[nH]cn1)NC(=O)[C@H](CC(N)=O)NC(=O)CNC(=O)[C@H](C)NC(=O)CNC(=O)[C@H](Cc1c[nH]cn1)NC(=O)[C@H](CC(C)C)NC(=O)[C@H](CC(C)C)NC(=O)[C@H](CCC(=O)O)NC(=O)[C@H](Cc1ccc(O)cc1)NC(=O)[C@H](CC(C)C)NC(=O)[C@H](CCCN=C(N)N)NC(=O)[C@H](CS)NC(=O)[C@H](CO)NC(=O)[C@H](CS)NC(=O)[C@@H](NC(=O)[C@H](CCCCN)NC(=O)[C@H](CCC(N)=O)NC(=O)[C@H](CCCN=C(N)N)NC(=O)[C@H](CS)NC(=O)[C@@H](N)CS)[C@@H](C)O)C(=O)N[C@@H](CC(C)C)C(=O)N[C@H](C(=O)N[C@@H](CC(C)C)C(N)=O)[C@@H](C)O` (H-CCRQKTCSCRLYELLHGAGNHAAGILTL-NH2) gave an EC50 of 0.81 µM. In other words, the sub-micromolar range.

Compound `CC[C@H](C)[C@H](NC(=O)CNC(=O)[C@H](C)NC(=O)[C@H](C)NC(=O)[C@H](Cc1cnc[nH]1)NC(=O)[C@H](CC(N)=O)NC(=O)CNC(=O)[C@H](C)NC(=O)CNC(=O)[C@H](Cc1cnc[nH]1)NC(=O)[C@H](CC(C)C)NC(=O)[C@H](CC(C)C)NC(=O)[C@H](CCC(=O)O)NC(=O)[C@H](Cc1ccc(O)cc1)NC(=O)[C@H](CC(C)C)NC(=O)[C@H](CCCNC(=N)N)NC(=O)CCCCCNC(=O)[C@H](CC(=O)O)NC(=O)[C@@H]1CCCN1C(=O)[C@H](CC(C)C)NC(=O)[C@@H]1CCCN1C(=O)[C@@H]1CCC(=O)N1)C(=O)N[C@@H](CC(C)C)C(=O)N[C@H](C(=O)N[C@@H](CC(C)C)C(=O)O)[C@@H](C)O` ([pGlu]PLPD[Ahx]RLYELLHGAGNHAAGILTL-OH) displayed an EC50 of 5.52 µM.

Turning to `CC[C@H](C)[C@H](NC(=O)CNC(=O)[C@H](C)NC(=O)[C@H](C)NC(=O)[C@H](Cc1c[nH]cn1)NC(=O)[C@H](CC(N)=O)NC(=O)CNC(=O)[C@H](CO)NC(=O)[C@H](C)NC(=O)[C@H](CCC(N)=O)NC(=O)[C@H](CC(C)C)NC(=O)[C@@H]1CCCN1C(=O)[C@H](CCCN=C(N)N)NC(=O)[C@H](CCC(N)=O)NC(=O)[C@H](CC(C)C)NC(=O)[C@H](CCCN=C(N)N)NC(=O)CNC(=O)[C@H](CCC(N)=O)NC(=O)[C@H](CC(C)C)NC(=O)CN)C(=O)N[C@@H](CC(C)C)C(=O)N[C@H](C(=O)N[C@@H](CCSC)C(N)=O)[C@@H](C)O` (H-GLQGRLQRPLQASGNHAAGILTM-NH2), the half-maximal effective concentration (EC50) is over 1000 µM.

In turn, `CC[C@H](C)[C@H](NC(=O)CNC(=O)[C@H](C)NC(=O)[C@H](C)NC(=O)[C@H](Cc1c[nH]cn1)NC(=O)[C@H](CC(N)=O)NC(=O)CNC(=O)[C@H](CO)NC(=O)[C@H](C)NC(=O)[C@H](CCC(N)=O)NC(=O)[C@H](CC(C)C)NC(=O)[C@H](CC(C)C)NC(=O)[C@H](CCCN=C(N)N)NC(=O)[C@@H]1CCCN1C(=O)[C@H](CC(C)C)NC(=O)[C@H](CCCN=C(N)N)NC(=O)CNC(=O)[C@H](CCC(N)=O)NC(=O)[C@H](CC(C)C)NC(=O)CN)C(=O)N[C@@H](CC(C)C)C(=O)N[C@H](C(=O)N[C@@H](CCSC)C(N)=O)[C@@H](C)O` (stereo in doubt; form 1) displayed a 50% effective concentration (EC50) of 5.26 µM.

`CC[C@H](C)[C@H](NC(=O)CNC(=O)[C@H](C)NC(=O)[C@H](C)NC(=O)[C@H](Cc1c[nH]cn1)NC(=O)[C@H](CC(N)=O)NC(=O)CNC(=O)[C@H](C)NC(=O)CNC(=O)[C@H](Cc1c[nH]cn1)NC(=O)[C@H](CC(C)C)NC(=O)[C@H](CC(C)C)NC(=O)CCCCCNC(=O)[C@H](CC(=O)O)NC(=O)[C@@H]1CCCN1C(=O)[C@H](CC(C)C)NC(=O)[C@@H]1CCCN1C(=O)[C@@H]1CCC(=O)N1)C(=O)N[C@@H](CC(C)C)C(=O)N[C@H](C(=O)N[C@@H](CC(C)C)C(=O)O)[C@@H](C)O` ([pGlu]PLPD[Ahx]LLHGAGNHAAGILTL-OH) displayed a half-maximal effective concentration (EC50) of over 1000 µM.

`CC[C@H](C)[C@H](NC(=O)CNC(=O)[C@H](C)NC(=O)[C@H](C)NC(=O)[C@H](Cc1c[nH]cn1)NC(=O)[C@H](CC(N)=O)NC(=O)CNC(=O)[C@H](CO)NC(=O)[C@H](C)NC(=O)[C@H](CCC(N)=O)NC(=O)[C@H](CC(C)C)NC(=O)[C@H](CC(C)C)NC(=O)[C@H](CCCN=C(N)N)NC(=O)[C@H](CCC(N)=O)NC(=O)[C@H](CC(C)C)NC(=O)[C@H](CCCN=C(N)N)NC(=O)CNC(=O)[C@@H]1CCCN1C(=O)[C@H](CC(C)C)NC(=O)CN)C(=O)N[C@@H](CC(C)C)C(=O)N[C@H](C(=O)N[C@@H](CCSC)C(N)=O)[C@@H](C)O` (H-GLPGRLQRLLQASGNHAAGILTM-NH2) returned an EC50 of 1.2 µM.

Consider `CC[C@H](C)[C@H](NC(=O)CNC(=O)[C@H](C)NC(=O)[C@H](C)NC(=O)[C@H](Cc1cnc[nH]1)NC(=O)[C@H](CC(N)=O)NC(=O)CNC(=O)[C@H](CO)NC(=O)[C@H](C)NC(=O)[C@H](CCC(N)=O)NC(=O)[C@H](CC(C)C)NC(=O)[C@H](CC(C)C)NC(=O)[C@H](C)NC(=O)[C@H](CCC(N)=O)NC(=O)[C@H](CC(C)C)NC(=O)[C@H](CCCNC(=N)N)NC(=O)CNC(=O)[C@H](CCC(N)=O)NC(=O)[C@H](CC(C)C)NC(=O)CN)C(=O)N[C@@H](CC(C)C)C(=O)N[C@H](C(=O)N[C@@H](CCSC)C(=O)O)[C@@H](C)O` (H-GLQGRLQALLQASGNHAAGILTM-OH), for which a half-maximal effect (EC50) was put at 4.34 µM.

As for `CC[C@H](C)[C@H](NC(=O)CNC(=O)[C@H](C)NC(=O)[C@H](C)NC(=O)[C@H](Cc1c[nH]cn1)NC(=O)[C@H](CC(N)=O)NC(=O)CNC(=O)[C@H](CO)NC(=O)[C@H](C)NC(=O)[C@H](CCC(N)=O)NC(=O)[C@H](CC(C)C)NC(=O)[C@H](CC(C)C)NC(=O)[C@H](CCCN=C(N)N)NC(=O)[C@H](CCC(N)=O)NC(=O)[C@H](CC(C)C)NC(=O)[C@H](C)NC(=O)CNC(=O)[C@H](CCC(N)=O)NC(=O)[C@H](CC(C)C)NC(=O)CN)C(=O)N[C@@H](CC(C)C)C(=O)N[C@H](C(=O)N[C@@H](CCSC)C(=O)O)[C@@H](C)O` (H-GLQGALQRLLQASGNHAAGILTM-OH), it took 6.95 µM to reach a half-maximal effect (EC50).

On to `CC[C@H](C)[C@H](NC(=O)CNC(=O)[C@H](C)NC(=O)[C@H](C)NC(=O)[C@H](Cc1cnc[nH]1)NC(=O)[C@H](CC(N)=O)NC(=O)CNC(=O)[C@H](CO)NC(=O)[C@H](C)NC(=O)[C@H](CCC(N)=O)NC(=O)[C@H](CC(C)C)NC(=O)[C@H](CC(C)C)NC(=O)[C@H](CCCNC(=N)N)NC(=O)[C@H](CCC(N)=O)NC(=O)[C@H](CC(C)C)NC(=O)[C@H](CCCNC(=N)N)NC(=O)CNC(=O)[C@@H](N)CCC(N)=O)C(=O)N[C@@H](CC(C)C)C(=O)N[C@H](C(=O)N[C@@H](CCSC)C(N)=O)[C@@H](C)O` (H-QGRLQRLLQASGNHAAGILTM-NH2), for which the concentration for a half-maximal effect (EC50) is 22.2 µM.

`CC[C@H](C)[C@H](NC(=O)CNC(=O)[C@H](C)NC(=O)[C@H](C)NC(=O)[C@H](Cc1c[nH]cn1)NC(=O)[C@H](CC(N)=O)NC(=O)CNC(=O)[C@H](CO)NC(=O)[C@H](C)NC(=O)[C@H](CCC(N)=O)NC(=O)[C@H](CC(C)C)NC(=O)[C@H](CC(C)C)NC(=O)[C@H](CCCN=C(N)N)NC(=O)[C@H](CCC(N)=O)NC(=O)[C@H](CC(C)C)NC(=O)[C@H](CCCN=C(N)N)NC(=O)CNC(=O)[C@H](CCC(N)=O)NC(=O)[C@H](C)NC(=O)CN)C(=O)N[C@@H](CC(C)C)C(=O)N[C@H](C(=O)N[C@@H](CCSC)C(N)=O)[C@@H](C)O` (H-GAQGRLQRLLQASGNHAAGILTM-NH2) came in with an EC50 of 7.41 µM.

Compound `CC[C@H](C)[C@H](NC(=O)CNC(=O)[C@H](C)NC(=O)[C@H](C)NC(=O)[C@H](Cc1cnc[nH]1)NC(=O)[C@H](CC(N)=O)NC(=O)CNC(=O)[C@H](CO)NC(=O)[C@H](C)NC(=O)[C@H](CCC(N)=O)NC(=O)[C@H](CC(C)C)NC(=O)[C@H](CC(C)C)NC(=O)[C@H](CCCNC(=N)N)NC(=O)[C@H](CCC(N)=O)NC(=O)[C@@H]1CCCN1C(=O)[C@H](CCCNC(=N)N)NC(=O)CNC(=O)[C@H](CCC(N)=O)NC(=O)[C@H](CC(C)C)NC(=O)CN)C(=O)N[C@@H](CC(C)C)C(=O)N[C@H](C(=O)N[C@@H](CCSC)C(N)=O)[C@@H](C)O` (H-GLQGRPQRLLQASGNHAAGILTM-NH2) gave an EC50 of over 1000 µM.

Take `CC[C@H](C)[C@H](NC(=O)CNC(=O)[C@H](C)NC(=O)[C@H](C)NC(=O)[C@H](Cc1cnc[nH]1)NC(=O)[C@H](CC(N)=O)NC(=O)CNC(=O)[C@H](C)NC(=O)CNC(=O)[C@H](Cc1cnc[nH]1)NC(=O)[C@H](CC(C)C)NC(=O)[C@H](CC(C)C)NC(=O)[C@H](CCC(=O)O)NC(=O)[C@H](Cc1ccc(O)cc1)NC(=O)[C@H](CC(C)C)NC(=O)[C@H](CCCNC(=N)N)NC(=O)[C@H](CS)NC(=O)[C@H](CO)NC(=O)[C@H](CS)NC(=O)[C@@H](NC(=O)[C@H](CCCCN)NC(=O)[C@H](CCC(N)=O)NC(=O)[C@H](CCCNC(=N)N)NC(=O)[C@H](CS)NC(=O)[C@H](CS)NC(=O)[C@H](CC(=O)O)NC(=O)[C@@H]1CCCN1C(=O)[C@H](CC(C)C)NC(=O)[C@@H]1CCCN1C(=O)[C@@H]1CCC(=O)N1)[C@@H](C)O)C(=O)N[C@@H](CC(C)C)C(=O)N[C@H](C(=O)N[C@@H](CC(C)C)C(=O)O)[C@@H](C)O`: the 50% effective concentration (EC50) was determined as 0.16 µM.

In turn, `CC[C@H](C)[C@H](NC(=O)CNC(=O)[C@H](C)NC(=O)[C@H](C)NC(=O)[C@H](Cc1c[nH]cn1)NC(=O)[C@H](CC(N)=O)NC(=O)CNC(=O)[C@H](C)NC(=O)CNC(=O)[C@H](Cc1c[nH]cn1)NC(=O)[C@H](CC(C)C)NC(=O)[C@@H](N)CC(C)C)C(=O)N[C@@H](CC(C)C)C(=O)N[C@H](C(=O)N[C@@H](CC(C)C)C(N)=O)[C@@H](C)O` (H-LLHGAGNHAAGILTL-NH2) gave a half-maximal effective concentration (EC50) of over 1000 µM.
